Assay results: patent US8835462B2, “Macrocyclic picolinamides as fungicides” (Dow AgroSciences LLC, priority 2012, dated 2014)
Where two headings read alike, the source gives them in different places.

Key:
Assay type in all cases: in vivo
[1] = tested on: Mycosphaerella graminicola; Anamorph: Septoria tritici; test: Leaf blotch of wheat (SEPTTR) fungicidal activity on wheat seedlings; settings: Zymoseptoria tritici
Protocol: Evaluation of Fungicidal Activity: Leaf Blotch of Wheat (Mycosphaerella Graminicola; Anamorph: Septoria tritici; Bayer Code […]) Technical grades of materials were dissolved in acetone, which were then mixed with nine volumes of water containing 110 ppm Triton X-100. The fungicide solutions were applied onto wheat seedlings using an automated booth sprayer to run-off. All sprayed plants were allowed to air dry prior to further handling. Wheat plants (variety Yuma) were grown from seed in a greenhouse in 50% mineral soil/50% soil-less Metro mix until the first leaf was fully emerged, with 7-10 seedlings per pot. These plants were inoculated with an aqueous spore suspension of Septoria tritici either prior to or after fungicide treatments. After inoculation the plants were kept in 100% relative humidity (one day in a dark dew chamber followed by two to three days in a lighted dew chamber at 20° C.) to permit spores to germinate and infect the leaf. The plants were then transferred to a greenhouse set at 20° C. for disease to develop. When disease symptoms were fully expressed on the 1st leaves of untreated plants, infection levels were assessed on a scale of 0 to 100 percent disease severity. Percent disease control was calculated using the ratio of disease severity on treated plants relative to untreated plants.

Puccinia triticina = test: Fungicide mobility (dropline mobility test), wheat brown rust (PUCCRT); settings: 1 ug/leaf, disease-free zone as percent of distance from marked line to leaf tip; for Dropline Mobility Test PUCCRT 1 DPM: 1 Day Protectant Mobility; for Dropline Mobility Test PUCCRT 3 DCM: 3 Day Curative Mobility
Protocol: Evaluation of Fungicide Mobility: Wheat Brown Rust (Puccinia Triticina; Synonym: Puccinia recondita f. sp. Tritici; Bayer Code PUCCRT):
“Yuma” wheat seedlings were used in the test. One mg of compound was dissolved in 9 μl of EC blank (emulsifiable concentrate) and 500 μl of acetone. Acetone was then evaporated overnight by leaving the vial open in a fume hood. Two milliliters of water containing 110 ppm Triton X-100 was added to each vial to prepare application solutions. A […] drop of formulated material was applied to a marked line on the adaxial surface 5 cm from the leaf tip of the primary leaves. The primary leaves were kept in a horizontal position. Each treatment had 6 replicates. Plants were inoculated with PUCCRT 1-day after (1DPM) or 3-day prior to (3DCM) compound applications. When rust was fully expressed on primary leaves on control plants, the zone of treated leaves that was disease-free in the acropetal direction was measured with a ruler and converted to percent of the distance from marked line to leaf tip.

[2] = tested on: Blumeria graminis f. sp. tritici; test: Wheat powdery mildew (ERYSGT) fungicidal activity; settings: 24 h, 1 Day Protectant, read-out: Disease Control ERYSGT 1DP
Protocol: Technical grades of materials were dissolved in acetone, which were then mixed with nine volumes of water containing 110 ppm Triton X-100. The fungicide solutions were applied onto wheat seedlings using an automated booth sprayer to run-off. All sprayed plants were allowed to air dry prior to further handling. Wheat plants (variety Yuma) were grown from seed in a greenhouse in 50% mineral soil/50% soil-less Metro mix until the first leaf was fully emerged, with 7-10 seedlings per pot. These plants were inoculated with an aqueous spore suspension of Septoria tritici either prior to or after fungicide treatments. After inoculation the plants were kept in 100% relative humidity (one day in a dark dew chamber followed by two to three days in a lighted dew chamber at 20° C.) to permit spores to germinate and infect the leaf. The plants were then transferred to a greenhouse set at 20° C. for disease to develop. When disease symptoms were fully expressed on the 1st leaves of untreated plants, infection levels were assessed on a scale of 0 to 100 percent disease severity. Percent disease control was calculated using the ratio of disease severity on treated plants relative to untreated plants. Evaluation of Fungicidal Activity: Wheat Powdery Mildew (Blumeria Graminis f. sp. Tritici; Synonym: Erysiphe graminis f. sp. Tritici; Bayer Code […]) Wheat plants (variety Yuma) were grown from seed in a greenhouse in 50% mineral soil/50% soil-less Metro mix until the first leaf was fully emerged, with 7-10 seedlings per pot. These plants were inoculated by dusting with infected stock plants 24 hr after fungicide treatments. After inoculation the plants were kept in a greenhouse set at 20° C. for disease to develop. Fungicide formulation, application and disease assessment on the sprayed leaves followed the procedures as described in the Example A.

Alternaria solani = test: Tomato early blight (ALTESO) fungicidal activity; settings: 24 h, 1 Day Protectant, read-out: Disease Control ALTESO 1DP
Protocol: Technical grades of materials were dissolved in acetone, which were then mixed with nine volumes of water containing 110 ppm Triton X-100. The fungicide solutions were applied onto wheat seedlings using an automated booth sprayer to run-off. All sprayed plants were allowed to air dry prior to further handling. Wheat plants (variety Yuma) were grown from seed in a greenhouse in 50% mineral soil/50% soil-less Metro mix until the first leaf was fully emerged, with 7-10 seedlings per pot. These plants were inoculated with an aqueous spore suspension of Septoria tritici either prior to or after fungicide treatments. After inoculation the plants were kept in 100% relative humidity (one day in a dark dew chamber followed by two to three days in a lighted dew chamber at 20° C.) to permit spores to germinate and infect the leaf. The plants were then transferred to a greenhouse set at 20° C. for disease to develop. When disease symptoms were fully expressed on the 1st leaves of untreated plants, infection levels were assessed on a scale of 0 to 100 percent disease severity. Percent disease control was calculated using the ratio of disease severity on treated plants relative to untreated plants. Evaluation of Fungicidal Activity: Tomato Early Blight (Alternaria Solani; Bayer Code […]) Tomato plants (variety Outdoor girl) were propagated in soil-less Metro mix, with each pot having one plant, and used when 12 to 14 days old. Test plants were inoculated with an aqueous spore suspension of Alternaria solani 24 hr after fungicide treatments. After inoculation the plants were kept in 100% relative humidity (one day in a dark dew chamber followed by two to three days in a lighted dew chamber at 20° C.) to permit spores to germinate and infect the leaf. The plants were then transferred to a growth room at 22° C. for disease to develop. Fungicide formulation, application and disease assessment on the sprayed leaves followed the procedures as described in the Example A.

[3] = 24 h, 1 Day Protectant, read-out: Disease Control SEPTTR 1 DP
[4] = 72 h, 3 Day Curative, read-out: Disease Control SEPTTR 3 DC

SMILES | pest or weed control at 100 ppm [1, 3] [%] | pest or weed control at 100 ppm [1, 4] [%] | Dropline Mobility Test PUCCRT 1 DPM (Puccinia triticina) | Dropline Mobility Test PUCCRT 3 DCM (Puccinia triticina) | pest or weed control at 100 ppm [2] [%] | pest or weed control at 100 ppm (Alternaria solani) [%]
COc1ccnc(C(=O)N[C@H]2COC[C@H](Cc3ccccc3)[C@@H](OCC(C)C)[C@H](C)OC2=O)c1O [Compound 2, N-((3S,7S,8R,9S)-7-benzyl-8-isobutoxy-9-methyl-2-oxo-1,5-dioxonan-3-yl)-3-hydroxy-4-methoxypicolinamide] | 80 to 100 | 80 to 100 | B (More than 0-Less than 80) | B (More than 0-Less than 80) | – | –
COc1ccnc(C(=O)N[C@H]2COC[C@H](Cc3ccccc3)[C@@H](OCC(C)C)[C@H](C)OC2=O)c1OCOC(=O)C(C)C [Compound 3] | 80 to 100 | 80 to 100 | B (More than 0-Less than 80) | B (More than 0-Less than 80) | 80 to 100 | 80 to 100
COc1ccnc(C(=O)N[C@H]2COC[C@H](Cc3ccccc3)[C@@H](OCC(C)C)[C@H](C)OC2=O)c1OCOC(=O)C(C)(C)C [Compound 7] | 80 to 100 | 80 to 100 | B (More than 0-Less than 80) | B (More than 0-Less than 80) | 0 to 80 | 80 to 100
COc1ccnc(C(=O)N[C@H]2COC[C@H](Cc3ccccc3)[C@@H](OCC(C)C)[C@H](C)OC2=O)c1OCOC(C)=O [Compound 8, (2-((3S,7S,8R,9S)-7-benzyl-8-isobutoxy-9-methyl-2-oxo-1,5-dioxonan-3-ylcarbamoyl)-4-methoxypyridin-3-yloxy)methyl acetate] | 80 to 100 | 80 to 100 | B (More than 0-Less than 80) | B (More than 0-Less than 80) | 80 to 100 | 80 to 100
COc1ccnc(C(=O)N[C@H]2COC[C@H](Cc3ccccc3)[C@@H](OCC(C)C)[C@H](C)OC2=O)c1OC(C)=O [Compound 9, 2-(((3S,7S,8R,9S)-7-benzyl-8-isobutoxy-9-methyl-2-oxo-1,5-dioxonan-3-yl)carbamoyl)-4-methoxypyridin-3-yl acetate] | 80 to 100 | 80 to 100 | B (More than 0-Less than 80) | B (More than 0-Less than 80) | 80 to 100 | 80 to 100
COc1ccnc(C(=O)N[C@H]2COC[C@H](Cc3ccccc3)[C@@H](OCC(C)C)[C@H](C)OC2=O)c1OC(=O)OC(C)C [Compound 10, 2-(((3S,7S,8R,9S)-7-benzyl-8-isobutoxy-9-methyl-2-oxo-1,5-dioxonan-3-yl)carbamoyl)-4-methoxypyridin-3-yl isopropyl carbonate] | 80 to 100 | 80 to 100 | B (More than 0-Less than 80) | B (More than 0-Less than 80) | 0 to 80 | 0 to 80
COc1ccnc(C(=O)N[C@H]2COC[C@H](Cc3ccccc3)[C@@H](OCCC(=O)N(C)C)[C@H](C)OC2=O)c1OCOC(C)=O [Compound 15] | 0 to 80 | 0 to 80 | – | – | 0 to 80 | 0 to 80
COCCCO[C@@H]1[C@@H](Cc2ccccc2)COC[C@H](NC(=O)c2nccc(OC)c2OCOC(C)=O)C(=O)O[C@H]1C [Compound 16] | 80 to 100 | 80 to 100 | – | – | 80 to 100 | 80 to 100
CCCO[C@@H]1[C@@H](Cc2ccccc2)COC[C@H](NC(=O)c2nccc(OC)c2OCOC(C)=O)C(=O)O[C@H]1C [Compound 22] | 80 to 100 | 80 to 100 | B (More than 0-Less than 80) | B (More than 0-Less than 80) | 80 to 100 | 80 to 100
COc1ccnc(C(=O)N[C@H]2COC[C@H](Cc3ccccc3)[C@@H](OCCCC(F)(F)F)[C@H](C)OC2=O)c1OCOC(C)=O [Compound 23] | 80 to 100 | 80 to 100 | B (More than 0-Less than 80) | B (More than 0-Less than 80) | 80 to 100 | 80 to 100
COc1ccnc(C(=O)N[C@H]2COC[C@H](Cc3ccccc3)[C@@H](OCC(F)F)[C@H](C)OC2=O)c1OCOC(C)=O [Compound 44] | 80 to 100 | 80 to 100 | B (More than 0-Less than 80) | B (More than 0-Less than 80) | – | 0 to 80
COc1ccnc(C(=O)N[C@H]2COC[C@H](Cc3ccccc3)[C@@H](OCCC(C)OC)[C@H](C)OC2=O)c1OCOC(C)=O (stereo partly shown) [Compound 46] | 80 to 100 | 80 to 100 | A (80-100) | A (80-100) | – | 0 to 80
COc1ccnc(C(=O)N[C@H]2COC[C@H](Cc3ccccc3)[C@@H](OC3CCCC3)[C@H](C)OC2=O)c1OCOC(C)=O [Compound 106] | 80 to 100 | 80 to 100 | – | – | – | 0 to 80
COc1ccnc(C(=O)N[C@H]2COC[C@H](Cc3ccccc3)[C@@H](OC3CCCC3)[C@H](C)OC2=O)c1OC(C)=O [Compound 107] | 80 to 100 | 80 to 100 | – | – | – | 0 to 80
COc1ccnc(C(=O)N[C@H]2COC[C@H](Cc3ccccc3)[C@@H](OC3CCCC3)[C@H](C)OC2=O)c1OCOC(=O)C(C)C [Compound 108] | 80 to 100 | 0 to 80 | – | – | – | 80 to 100
